Laboratory results: ChEMBL document CHEMBL1145260, “Design, synthesis and structure-activity relationships of 6-O-arylpropargyl diazalides with potent activity against multidrug-resistant Streptococcus pneumoniae” (2005)
≈ marks a conversion by molar mass, not a printed value.

Tests used:
Type in all cases: functional
[1] = test system: Streptococcus pneumoniae; test: Minimum inhibitory concentration against Streptococcus pneumoniae 5649 strain
[2] = test system: Staphylococcus aureus; test: Minimum inhibitory concentration against Staphylococcus aureus 6538P (erythromycin-susceptible strain)
[3] = test system: Streptococcus pneumoniae; test: Minimum inhibitory concentration against Streptococcus pneumoniae ATCC 6303 (erythromycin-susceptible strain)
[4] = test system: Streptococcus pyogenes; test: Minimum inhibitory concentration against Streptococcus pyogenes EES61 (erythromycin-susceptible strain)
[5] = test system: Streptococcus pneumoniae; test: Minimum inhibitory concentration against Streptococcus pneumoniae 5979 strain
[6] = test system: Streptococcus pyogenes; test: Minimum inhibitory concentration against Streptococcus pyogenes 930 (erythromycin-resistant strain)
[7] = test system: Haemophilus influenzae; test: Minimum inhibitory concentration against Haemophilus influenzae GYR1435 (erythromycin susceptible strain)
[8] = test system: Staphylococcus aureus; test: Minimum inhibitory concentration against Staphylococcus aureus A5177 (erythromycin-resistant strain

| SMILES | MIC [1] [µg/mL] | MIC [2] [µg/mL] | MIC [3] [µg/mL] | MIC [4] [µg/mL] | MIC [5] [µg/mL] | MIC [6] [µg/mL] | MIC [7] [µg/mL] | MIC [8] [µg/mL] |
| --- | --- | --- | --- | --- | --- | --- | --- | --- |
| CC[C@H]1OC(=O)[C@H](C)C(=O)[C@H](C)[C@@H](O[C@@H]2O[C@H](C)C[C@H](N(C)C)[C@H]2O)[C@@](C)(OCC#CCCc2ccc(-c3cccs3)cc2)C[C@@H](C)C2=NCCN3C(=O)O[C@@]1(C)[C@H]3[C@H]2C | 0.25 (≈ 0.295 µM) | 1 (≈ 1.18 µM) | 0.015 (≈ 0.0177 µM) | ≤ 0.008 | 0.125 (≈ 0.147 µM) | 0.5 (≈ 0.59 µM) | 8 (≈ 9.43 µM) | 0.5 (≈ 0.59 µM) |
| CC[C@H]1OC(=O)[C@H](C)C(=O)[C@H](C)[C@@H](O[C@@H]2O[C@H](C)C[C@H](N(C)C)[C@H]2O)[C@@](C)(OCC#Cc2cccnc2)C[C@@H](C)C2=NCCN3C(=O)O[C@@]1(C)[C@H]3[C@H]2C | 1 (≈ 1.35 µM) | 0.2 (≈ 0.271 µM) | 0.03 (≈ 0.0406 µM) | 0.03 (≈ 0.0406 µM) | > 128 | 64 (≈ 86.6 µM) | 2 (≈ 2.71 µM) | 0.2 (≈ 0.271 µM) |
| CC[C@H]1OC(=O)[C@H](C)C(=O)[C@H](C)[C@@H](O[C@@H]2O[C@H](C)C[C@H](N(C)C)[C@H]2O)[C@@](C)(OCC#Cc2cccs2)C[C@@H](C)C2=NCCN3C(=O)O[C@@]1(C)[C@H]3[C@H]2C | 0.25 (≈ 0.336 µM) | 0.1 (≈ 0.134 µM) | 0.03 (≈ 0.0403 µM) | 0.03 (≈ 0.0403 µM) | > 128 | 64 (≈ 86 µM) | 4 (≈ 5.38 µM) | 0.1 (≈ 0.134 µM) |
| CC[C@H]1OC(=O)[C@@](C)(F)C(=O)[C@H](C)[C@@H](O[C@@H]2O[C@H](C)C[C@H](N(C)C)[C@H]2O)[C@@](C)(OCC#Cc2ccc(-c3nnn(C)n3)s2)C[C@@H](C)C2=NCCN3C(=O)O[C@@]1(C)[C@H]3[C@H]2C | 0.25 (≈ 0.296 µM) | 0.5 (≈ 0.592 µM) | ≤ 0.008 | ≤ 0.008 | 0.125 (≈ 0.148 µM) | 2 (≈ 2.37 µM) | 4 (≈ 4.74 µM) | 0.125 (≈ 0.148 µM) |
| CC[C@H]1OC(=O)[C@H](C)C(=O)[C@H](C)[C@@H](O[C@@H]2O[C@H](C)C[C@H](N(C)C)[C@H]2O)[C@@](C)(OCC#Cc2ccc(-c3cccs3)cc2)C[C@@H](C)C2=NCCN3C(=O)O[C@@]1(C)[C@H]3[C@H]2C | ≤ 0.008 | 0.5 (≈ 0.61 µM) | ≤ 0.008 | ≤ 0.008 | ≤ 0.008 | 4 (≈ 4.88 µM) | 2 (≈ 2.44 µM) | 0.03 (≈ 0.0366 µM) |
| CC[C@H]1OC(=O)[C@H](C)C(=O)[C@H](C)[C@@H](O[C@@H]2O[C@H](C)C[C@H](N(C)C)[C@H]2O)[C@@](C)(OCC#Cc2cnc3c(F)cccc3c2)C[C@@H](C)C2=NCCN3C(=O)O[C@@]1(C)[C@H]3[C@H]2C | 0.25 (≈ 0.31 µM) | 0.06 (≈ 0.0744 µM) | 0.004 (≈ 0.00496 µM) | ≤ 0.008 | 4 (≈ 4.96 µM) | 0.5 (≈ 0.62 µM) | 2 (≈ 2.48 µM) | 0.1 (≈ 0.124 µM) |
| CC[C@H]1OC(=O)[C@@](C)(F)C(=O)[C@H](C)[C@@H](O[C@@H]2O[C@H](C)C[C@H](N(C)C)[C@H]2O)[C@@](C)(OCC#Cc2cnc3c(F)cccc3c2)C[C@@H](C)C2=NCCN3C(=O)O[C@@]1(C)[C@H]3[C@H]2C | 0.125 (≈ 0.152 µM) | 0.25 (≈ 0.303 µM) | ≤ 0.008 | ≤ 0.008 | 0.125 (≈ 0.152 µM) | 0.25 (≈ 0.303 µM) | 4 (≈ 4.85 µM) | 0.125 (≈ 0.152 µM) |
| CC[C@H]1OC(=O)[C@H](C)C(=O)[C@H](C)[C@@H](O[C@@H]2O[C@H](C)C[C@H](N(C)C)[C@H]2O)[C@@](C)(OCC#Cc2cnc3c(OC)cccc3c2)C[C@@H](C)C2=NCCN3C(=O)O[C@@]1(C)[C@H]3[C@H]2C | 0.06 (≈ 0.0733 µM) | 0.25 (≈ 0.305 µM) | ≤ 0.008 | ≤ 0.008 | 8 (≈ 9.77 µM) | 4 (≈ 4.88 µM) | 2 (≈ 2.44 µM) | 0.06 (≈ 0.0733 µM) |
